How the values were obtained:
Assay type in all cases: in vivo
[1] = test system: Kochia (Kochia scoparia); experiment: Test A preemergence; conditions: Bassia scoparia, pre-emergence, 240 h, preemergence, 0 to 100 scale where 0 is no effect and 100 is complete control, read-out: Kochia plant response rating; for pest or weed control at 125 g/ha: 125 g ai/ha, visual injury rating, approximately 10 d; for pest or weed control at 500 g/ha: 500 g ai/ha
Procedure, shortened: (§1)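 In a loam soil and sand blend, planted seeds got a preemergence directed soil spray, and young plants at the one- to two-leaf stage, 2–10 cm high, got a postemergence application; ~10 d greenhouse hold; injury rated visually, 0 = none, 100 = complete control.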

[2] = test system: barnyardgrass (Echinochloa crus-galli); experiment: Test A preemergence; conditions: Echinochloa crus-galli, pre-emergence, 240 h, preemergence, 0 to 100 scale where 0 is no effect and 100 is complete control, read-out: Barnyardgrass plant response rating; for pest or weed control at 125 g/ha: 125 g ai/ha, visual injury rating, approximately 10 d; for pest or weed control at 500 g/ha: 500 g ai/ha
Procedure, shortened: as §1

[3] = test system: pigweed (Amaranthus retroflexus); experiment: Test A preemergence; conditions: Amaranthus retroflexus, pre-emergence, 240 h, preemergence, 0 to 100 scale where 0 is no effect and 100 is complete control, read-out: Pigweed plant response rating; for pest or weed control at 125 g/ha: 125 g ai/ha, visual injury rating, approximately 10 d; for pest or weed control at 500 g/ha: 500 g ai/ha
[4] = test system: ragweed (common ragweed, Ambrosia elatior); experiment: Test A preemergence; conditions: Ambrosia artemisiifolia, pre-emergence, 240 h, preemergence, 0 to 100 scale where 0 is no effect and 100 is complete control, read-out: Ragweed plant response rating; for pest or weed control at 125 g/ha: 125 g ai/ha, visual injury rating, approximately 10 d; for pest or weed control at 500 g/ha: 500 g ai/ha
Procedure, shortened: as §1

[5] = test system: ryegrass, Italian (Italian ryegrass, Lolium multiflorum); experiment: Test A preemergence; conditions: Lolium multiflorum, pre-emergence, 240 h, preemergence, 0 to 100 scale where 0 is no effect and 100 is complete control, read-out: Ryegrass, Italian plant response rating; for pest or weed control at 125 g/ha: 125 g ai/ha, visual injury rating, approximately 10 d; for pest or weed control at 500 g/ha: 500 g ai/ha
Procedure, shortened: as §1

[6] = test system: Galium (catchweed bedstraw, Galium aparine); experiment: Test A postemergence; conditions: Galium, post-emergence, 240 h; for pest or weed control at 125 g/ha: 125 g ai/ha, postemergence, visual injury vs untreated controls after approx. 10 d, 0 = no effect, 100 = complete control, read-out: Galium plant response rating (0 to 100 scale); for pest or weed control at 500 g/ha: Postemergence, 500 g ai/ha, visual injury, 0 to 100 scale (0 no effect, 100 complete control), approx. 10 d, read-out: Plant response rating, Galium
Procedure, shortened: as §1

[7] = test system: Kochia (Kochia scoparia); experiment: Test A postemergence; conditions: Bassia scoparia, post-emergence, 240 h; for pest or weed control at 125 g/ha: 125 g ai/ha, postemergence, visual injury vs untreated controls after approx. 10 d, 0 = no effect, 100 = complete control, read-out: Kochia plant response rating (0 to 100 scale); for pest or weed control at 500 g/ha: Postemergence, 500 g ai/ha, visual injury, 0 to 100 scale (0 no effect, 100 complete control), approx. 10 d, read-out: Plant response rating, Kochia
Procedure, shortened: as §1

[8] = test system: barnyardgrass (Echinochloa crus-galli); experiment: Test A postemergence; conditions: Echinochloa crus-galli, post-emergence, 240 h; for pest or weed control at 125 g/ha: 125 g ai/ha, postemergence, visual injury vs untreated controls after approx. 10 d, 0 = no effect, 100 = complete control, read-out: Barnyardgrass plant response rating (0 to 100 scale); for pest or weed control at 500 g/ha: Postemergence, 500 g ai/ha, visual injury, 0 to 100 scale (0 no effect, 100 complete control), approx. 10 d, read-out: Plant response rating, Barnyardgrass
Procedure, shortened: as §1

[9] = test system: blackgrass (Alopecurus myosuroides); experiment: Test A postemergence; conditions: Alopecurus myosuroides, post-emergence, 240 h; for pest or weed control at 125 g/ha: 125 g ai/ha, postemergence, visual injury vs untreated controls after approx. 10 d, 0 = no effect, 100 = complete control, read-out: Blackgrass plant response rating (0 to 100 scale); for pest or weed control at 500 g/ha: Postemergence, 500 g ai/ha, visual injury, 0 to 100 scale (0 no effect, 100 complete control), approx. 10 d, read-out: Plant response rating, Blackgrass
Procedure, shortened: as §1

[10] = test system: corn (Zea mays); experiment: Test A postemergence; conditions: Zea mays, post-emergence, 240 h; for plant injury at 125 g/ha: 125 g ai/ha, postemergence, visual injury vs untreated controls after approx. 10 d, 0 = no effect, 100 = complete control, read-out: Corn plant response rating (0 to 100 scale); for Corn plant response rating (crop injury, 0 = no effect, 100 = complete kill) at 500 g/ha: Postemergence, 500 g ai/ha, visual injury, 0 to 100 scale (0 no effect, 100 complete control), approx. 10 d
Procedure, shortened: as §1

[11] = test system: giant foxtail (Setaria faberii); experiment: Test A postemergence; conditions: Setaria faberi, post-emergence, 240 h; for pest or weed control at 125 g/ha: 125 g ai/ha, postemergence, visual injury vs untreated controls after approx. 10 d, 0 = no effect, 100 = complete control, read-out: Foxtail, Giant plant response rating (0 to 100 scale); for pest or weed control at 500 g/ha: Postemergence, 500 g ai/ha, visual injury, 0 to 100 scale (0 no effect, 100 complete control), approx. 10 d, read-out: Plant response rating, Foxtail, Giant
Procedure, shortened: as §1

[12] = test system: pigweed (Amaranthus retroflexus); experiment: Test A postemergence; conditions: Amaranthus retroflexus, post-emergence, 240 h; for pest or weed control at 125 g/ha: 125 g ai/ha, postemergence, visual injury vs untreated controls after approx. 10 d, 0 = no effect, 100 = complete control, read-out: Pigweed plant response rating (0 to 100 scale); for pest or weed control at 500 g/ha: Postemergence, 500 g ai/ha, visual injury, 0 to 100 scale (0 no effect, 100 complete control), approx. 10 d, read-out: Plant response rating, Pigweed
Procedure, shortened: as §1

[13] = test system: ragweed (common ragweed, Ambrosia elatior); experiment: Test A postemergence; conditions: Ambrosia artemisiifolia, post-emergence, 240 h; for pest or weed control at 125 g/ha: 125 g ai/ha, postemergence, visual injury vs untreated controls after approx. 10 d, 0 = no effect, 100 = complete control, read-out: Ragweed plant response rating (0 to 100 scale); for pest or weed control at 500 g/ha: Postemergence, 500 g ai/ha, visual injury, 0 to 100 scale (0 no effect, 100 complete control), approx. 10 d, read-out: Plant response rating, Ragweed
Procedure, shortened: as §1

[14] = test system: ryegrass, Italian (Italian ryegrass, Lolium multiflorum); experiment: Test A postemergence; conditions: Lolium multiflorum, post-emergence, 240 h; for pest or weed control at 125 g/ha: 125 g ai/ha, postemergence, visual injury vs untreated controls after approx. 10 d, 0 = no effect, 100 = complete control, read-out: Ryegrass, Italian plant response rating (0 to 100 scale); for pest or weed control at 500 g/ha: Postemergence, 500 g ai/ha, visual injury, 0 to 100 scale (0 no effect, 100 complete control), approx. 10 d, read-out: Plant response rating, Ryegrass, Italian
Procedure, shortened: as §1

[15] = test system: wheat (Triticum aestivum); experiment: Test A postemergence; conditions: Triticum aestivum, post-emergence, 240 h; for plant injury at 125 g/ha: 125 g ai/ha, postemergence, visual injury vs untreated controls after approx. 10 d, 0 = no effect, 100 = complete control, read-out: Wheat plant response rating (0 to 100 scale); for plant injury at 500 g/ha: Postemergence, 500 g ai/ha, visual injury, 0 to 100 scale (0 no effect, 100 complete control), approx. 10 d, read-out: Plant response rating, Wheat
Procedure, shortened: as §1

Row | Compound | pest or weed control at 500 g/ha [1] | pest or weed control at 125 g/ha [2] | pest or weed control at 500 g/ha [2] | pest or weed control at 125 g/ha [3] | pest or weed control at 500 g/ha [3] | pest or weed control at 125 g/ha [4] | pest or weed control at 500 g/ha [4] | pest or weed control at 125 g/ha [5] | pest or weed control at 500 g/ha [5] | pest or weed control at 125 g/ha [6] | pest or weed control at 500 g/ha [6] | pest or weed control at 125 g/ha [7] | pest or weed control at 500 g/ha [7] | pest or weed control at 125 g/ha [8] | pest or weed control at 500 g/ha [8] | pest or weed control at 125 g/ha [9] | pest or weed control at 500 g/ha [9] | plant injury at 125 g/ha [10] | Corn plant response rating (crop injury, 0 = no effect, 100 = complete kill) at 500 g/ha [10] | pest or weed control at 125 g/ha [11] | also measured
1 | Cc1ccc([C@H]2CNC(=O)[C@@H]2C(=O)Nc2c(F)cccc2F)cc1C [Compound 1247] | 30% | 70% | 90% | 0% | 0% | 0% | 0% | 0% | 20% | 0% | 20% | 0% | 0% | 40% | 70% | 0% | 0% | 0% | 0% | 0% | pest or weed control at 125 g/ha [1]: 0%; pest or weed control at 500 g/ha [11]: 30%; pest or weed control at 125 g/ha [12]: 0%; pest or weed control at 500 g/ha [12]: 0%; pest or weed control at 125 g/ha [13]: 0%; pest or weed control at 500 g/ha [13]: 0%; pest or weed control at 125 g/ha [14]: 0%; pest or weed control at 500 g/ha [14]: 0%; plant injury at 125 g/ha [15]: 0%; plant injury at 500 g/ha [15]: 0%
2 | CSc1ccccc1NC(=O)[C@H]1C(=O)N(C)C[C@@H]1c1cccc(C(F)(F)F)c1 [Compound 1249] | 90% | 100% | 100% | 80% | 90% | 30% | 70% | 30% | 100% | 50% | 50% | 40% | 70% | 100% | 100% | 40% | 50% | 70% | 90% | 80% | pest or weed control at 500 g/ha [11]: 80%; pest or weed control at 125 g/ha [12]: 30%; pest or weed control at 500 g/ha [12]: 80%; pest or weed control at 125 g/ha [13]: 0%; pest or weed control at 500 g/ha [13]: 60%; pest or weed control at 125 g/ha [14]: 30%; pest or weed control at 500 g/ha [14]: 70%; plant injury at 125 g/ha [15]: 50%; plant injury at 500 g/ha [15]: 70%
3 | CSc1ccccc1NC(=O)[C@H]1C(=O)N(C)C[C@@H]1c1ccc2c(c1)OC(F)(F)O2 [Compound 1251] | 90% | 100% | 100% | 90% | 90% | 70% | 80% | 50% | 60% | 50% | 50% | 50% | 70% | 80% | 100% | 0% | 40% | 20% | 80% | 70% | pest or weed control at 125 g/ha [1]: 80%; pest or weed control at 500 g/ha [11]: 80%; pest or weed control at 125 g/ha [12]: 70%; pest or weed control at 500 g/ha [12]: 80%; pest or weed control at 125 g/ha [13]: 0%; pest or weed control at 500 g/ha [13]: 50%; pest or weed control at 125 g/ha [14]: 20%; pest or weed control at 500 g/ha [14]: 40%; plant injury at 125 g/ha [15]: 30%; plant injury at 500 g/ha [15]: 60%

Reference: patent US12077503B2, “Substituted cyclic amides and their use as herbicides” (FMC CORPORATION, priority 2015, dated 2024)
